Measurements published in ChEMBL document CHEMBL6092212, “Discovery of novel substituted (Z)-N'-hydroxy-3-(3-phenylureido)benzimidamide derivatives as multifunctional molecules targeting pathological hallmarks of Alzheimer's disease” (Eur J Med Chem, 2024).

How the values were obtained:
Cholinesterase = Cholinesterase (Equus caballus, UniProt P81908); experiment: Inhibition of equine BChE using BTCI as substrate preincubated for 30 mins followed by substrate addition measured after 30 mins by Ellman's method
Acetylcholinesterase [1] = biological target: T1, Acetylcholinesterase (Homo sapiens, UniProt P22303); experiment: Inhibition of human AChE using ATCI as substrate preincubated for 30 mins followed by substrate addition measured after 30 mins by Ellman's method
Acetylcholinesterase [2] = biological target: T1, Acetylcholinesterase; experiment: Inhibition of human AChE using ATCI as substrate preincubated for 30 mins followed by substrate addition measured after 30 mins by Ellman's method relative to control; parameters: concentration or dose not given beside the values; details: time 60.0 min
[3] = Antioxidant activity assessed as DPPH radical scavenging activity at 20 to 200 uM incubated for 30 mins by absorbance based analysis relative to control; assay type: functional; details: dose 20-200 µM
[4] = Antioxidant activity assessed as inhibition of DPPH radical scavenging activity incubated for 30 mins by absorbance based analysis; assay type: functional
[5] = biological target: Cholinesterase (Equus caballus) (UniProt P81908); experiment: Inhibition of equine BChE using BTCI as substrate preincubated for 30 mins followed by substrate addition measured after 30 mins by Ellman's method relative to control
Chain of Cholinesterase (Equus caballus) (P81908 whole entry): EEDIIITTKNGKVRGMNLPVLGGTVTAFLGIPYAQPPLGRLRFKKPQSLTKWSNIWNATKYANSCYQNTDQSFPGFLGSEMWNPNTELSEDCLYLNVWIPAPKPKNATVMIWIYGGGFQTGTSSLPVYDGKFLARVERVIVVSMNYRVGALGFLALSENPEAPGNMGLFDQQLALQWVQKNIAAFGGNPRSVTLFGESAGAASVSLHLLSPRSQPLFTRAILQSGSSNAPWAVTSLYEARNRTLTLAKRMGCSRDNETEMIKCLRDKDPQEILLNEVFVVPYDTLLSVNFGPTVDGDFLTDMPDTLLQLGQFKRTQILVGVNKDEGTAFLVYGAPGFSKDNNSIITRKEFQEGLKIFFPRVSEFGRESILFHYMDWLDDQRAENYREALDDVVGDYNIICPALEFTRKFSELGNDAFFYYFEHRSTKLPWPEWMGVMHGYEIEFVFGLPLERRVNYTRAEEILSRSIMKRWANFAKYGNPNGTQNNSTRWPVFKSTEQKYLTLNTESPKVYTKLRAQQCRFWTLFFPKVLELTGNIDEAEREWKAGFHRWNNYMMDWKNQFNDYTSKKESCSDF

Chain of Cholinesterase (P81908 whole entry): as above
T1 sequence (P22303 whole entry): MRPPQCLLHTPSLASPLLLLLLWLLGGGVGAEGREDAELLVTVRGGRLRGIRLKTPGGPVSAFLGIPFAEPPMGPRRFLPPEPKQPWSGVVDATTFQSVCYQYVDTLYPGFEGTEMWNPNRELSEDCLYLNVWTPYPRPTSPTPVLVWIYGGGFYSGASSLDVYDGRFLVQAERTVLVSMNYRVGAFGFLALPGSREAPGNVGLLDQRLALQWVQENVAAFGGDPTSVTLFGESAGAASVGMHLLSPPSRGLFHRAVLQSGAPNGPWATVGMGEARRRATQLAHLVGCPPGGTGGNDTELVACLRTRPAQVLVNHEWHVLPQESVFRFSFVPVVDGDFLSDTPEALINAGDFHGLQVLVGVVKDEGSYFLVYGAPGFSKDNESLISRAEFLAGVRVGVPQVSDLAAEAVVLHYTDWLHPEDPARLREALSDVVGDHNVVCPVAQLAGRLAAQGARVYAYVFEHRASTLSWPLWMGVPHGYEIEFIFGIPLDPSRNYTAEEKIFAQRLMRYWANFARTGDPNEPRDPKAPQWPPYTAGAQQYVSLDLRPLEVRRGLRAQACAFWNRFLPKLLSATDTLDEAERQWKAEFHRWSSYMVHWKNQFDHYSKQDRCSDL

N/C(=N\O)c1cccc(NC(=O)Nc2cccc(Br)c2)c1
IC50 (Cholinesterase): 8.63 µM
IC50 (Acetylcholinesterase [1]): 14.5 µM

N/C(=N\O)c1cccc(NC(=O)NCCc2c[nH]c3ccccc23)c1
IC50 (Cholinesterase): 3.91 µM
IC50 (Acetylcholinesterase [1]): 1.54 µM

N/C(=N\O)c1ccc(NC(=O)Nc2ccc3[nH]ccc3c2)cc1
IC50 (Cholinesterase): 12.7 µM
IC50 (Acetylcholinesterase [1]): 7.47 µM

N/C(=N\O)c1ccc(NC(=O)Nc2cccc(F)c2)cc1
IC50 (Cholinesterase): 8.08 µM
IC50 (Acetylcholinesterase [1]): 3.04 µM

Cc1ccc(NC(=O)Nc2cccc(/C(N)=N/O)c2)cc1
IC50 (Cholinesterase): 17.9 µM
inhibition (Acetylcholinesterase [2]): 39.9%

NC(=NO)c1cccc(NC(=O)Nc2ccccc2C(F)(F)F)c1
IC50 (Cholinesterase): 17.1 µM
IC50 (Acetylcholinesterase [1]): 18.3 µM

N/C(=N\O)c1cccc(NC(=O)Nc2ccccc2)c1
IC50 (Cholinesterase): 17.5 µM
inhibition (Acetylcholinesterase [2]): 47.9%

COc1cccc(NC(=O)Nc2ccc(/C(N)=N/O)cc2)c1
IC50 (Cholinesterase): 18.2 µM
IC50 (Acetylcholinesterase [1]): 9.15 µM

NC(=NO)c1cccc(NC(=O)Nc2ccc(Br)cc2)c1
IC50 (Cholinesterase): 14.6 µM
IC50 (Acetylcholinesterase [1]): 16.8 µM

N/C(=N\O)c1cccc(NC(=O)Nc2ccc3ncccc3c2)c1
Activity [3]: 42.9%
IC50 [4]: 18.4 µM

NC(=NO)c1cccc(NC(=O)Nc2cccc(Cl)c2)c1
IC50 (Cholinesterase): 18.7 µM
IC50 (Acetylcholinesterase [1]): 17.4 µM

COc1ccc(NC(=O)Nc2cccc(/C(N)=N/O)c2)cc1
IC50 (Cholinesterase): 17.9 µM
IC50 (Acetylcholinesterase [1]): 16.3 µM

NC(=NO)c1cccc(NC(=O)Nc2ccc(F)cc2)c1
IC50 (Cholinesterase): 17.7 µM
IC50 (Acetylcholinesterase [1]): 7.51 µM

Cc1cccc(NC(=O)Nc2cccc(/C(N)=N/O)c2)c1
IC50 (Cholinesterase): 10.6 µM
inhibition (Acetylcholinesterase [2]): 42.5%

N/C(=N\O)c1cccc(NC(=O)NCCc2c[nH]c3ccc(Cl)cc23)c1
IC50 (Cholinesterase): 3.1 µM
IC50 (Acetylcholinesterase [1]): 1.16 µM

NC(=NO)c1cccc(NC(=O)Nc2ccc3ncccc3c2)c1
IC50 (Cholinesterase): 15.4 µM
IC50 (Acetylcholinesterase [1]): 5.68 µM

NC(=NO)c1cccc(NC(=O)Nc2ccccc2Cl)c1
IC50 (Cholinesterase): 15.4 µM

N/C(=N\O)c1cccc(NC(=O)Nc2ccc(C(F)(F)F)cc2)c1
IC50 (Acetylcholinesterase [1]): 12.2 µM
inhibition [5]: 47%

N/C(=N\O)c1ccc(NC(=O)Nc2ccc(Cl)cc2)cc1
IC50 (Cholinesterase): 14.6 µM
IC50 (Acetylcholinesterase [1]): 7.65 µM

NC(=NO)c1ccc(NC(=O)Nc2cccc(Br)c2)cc1
IC50 (Cholinesterase): 7.62 µM
IC50 (Acetylcholinesterase [1]): 6.41 µM

NC(=NO)c1cccc(NC(=O)Nc2cccc(O)c2)c1
IC50 (Cholinesterase): 15.5 µM
IC50 (Acetylcholinesterase [1]): 14.5 µM

Cc1ccccc1NC(=O)Nc1cccc(/C(N)=N/O)c1
IC50 (Cholinesterase): 15.4 µM
IC50 (Acetylcholinesterase [1]): 17.4 µM

Cc1ccccc1NC(=O)Nc1ccc(/C(N)=N/O)cc1
IC50 (Cholinesterase): 16.9 µM
IC50 (Acetylcholinesterase [1]): 8.57 µM

N/C(=N\O)c1cccc(NC(=O)Nc2cccc(C(F)(F)F)c2)c1
IC50 (Cholinesterase): 10.5 µM
IC50 (Acetylcholinesterase [1]): 17 µM

N/C(=N\O)c1ccc(NC(=O)Nc2ccc3ncccc3c2)cc1
IC50 (Cholinesterase): 13.2 µM
IC50 (Acetylcholinesterase [1]): 6.94 µM

N/C(=N\O)c1cccc(NC(=O)Nc2ccccc2Cl)c1
inhibition (Acetylcholinesterase [2]): 49.2%

COc1cccc(NC(=O)Nc2cccc(/C(N)=N/O)c2)c1
IC50 (Cholinesterase): 12.8 µM
IC50 (Acetylcholinesterase [1]): 12.9 µM

N/C(=N\O)c1cccc(NC(=O)Nc2ccc(O)cc2)c1
IC50 (Cholinesterase): 14.4 µM
IC50 (Acetylcholinesterase [1]): 16.3 µM

O=c1c(O)c(-c2ccc(O)c(O)c2)oc2cc(O)cc(O)c12 [QUERCETIN]
Activity [3]: 79.4%
IC50 [4]: 3.23 µM

NC(=NO)c1cccc(NC(=O)Nc2cccc([N+](=O)[O-])c2)c1
IC50 (Cholinesterase): 16.3 µM
IC50 (Acetylcholinesterase [1]): 12.1 µM

N/C(=N\O)c1cccc(NC(=O)Nc2ccccc2Br)c1
inhibition (Acetylcholinesterase [2]): 47.7%
inhibition [5]: 49.2%

N/C(=N\O)c1cccc(NC(=O)Nc2ccccc2F)c1
IC50 (Cholinesterase): 11.3 µM
IC50 (Acetylcholinesterase [1]): 18.6 µM

COc1ccccc1NC(=O)Nc1cccc(/C(N)=N/O)c1
IC50 (Cholinesterase): 15.2 µM
inhibition (Acetylcholinesterase [2]): 49%

NC(=NO)c1cccc(NC(=O)Nc2ccc([N+](=O)[O-])cc2)c1
IC50 (Cholinesterase): 17.6 µM
IC50 (Acetylcholinesterase [1]): 16.3 µM

N/C(=N\O)c1cccc(NC(=O)Nc2ccc(Cl)cc2)c1
IC50 (Cholinesterase): 16.5 µM
IC50 (Acetylcholinesterase [1]): 14.1 µM

N/C(=N\O)c1cccc(NC(=O)Nc2ccc3[nH]ccc3c2)c1
IC50 (Cholinesterase): 15.9 µM
IC50 (Acetylcholinesterase [1]): 6.24 µM
Activity [3]: 34.2%
IC50 [4]: 22.9 µM
